Entries after “also recorded” stand apart in the source; their conditions may differ.
Test system: ZIKA rabbits
Type: in vivo
Details: rabbits n=3 immunized with CRM197-23* in alhydrogel day 0 and 14; sera before and after immunization

C[C@@H]1O[C@@H](O[C@H]2C(C(=O)O)O[C@H](OC3C(O)[C@@H](O)[C@H](C)O[C@H]3OC3C(O)[C@@H](O)[C@H](C)O[C@H]3OC3C(O)[C@@H](O)[C@H](C)O[C@H]3OCCCCCN)C(O)[C@H]2O[C@@H]2OC(CO)[C@H](O)[C@H](O)C2O)C(O)C(O)[C@H]1O (stereo partly drawn) [hexasaccharide 23*, 5-Amino-pentanyl α-L-rhamnopyranosyl-(1→4)-[P3-D-galactopyranosyl-(1→3)]-α-D-galactopyranosyluronic acid-(1→2)-α-L-rhamnopyranosyl-(1→2)-α-L-rhamnopyranosyl-(1→2)-α-L-rhamnopyranoside]
immunogenicity and cross-reactivity of antibodies by glycan microarray: specific antibodies are cross-reactive with native polysaccharide and other synthetic glycans; also recorded: immunogenic in rabbits and induces cross-reactive antibodies
